Test results reported in the NIST ThermoML archive (doi:10.1016/j.jct.2015.09.030).

Experiment: xn = mol fraction of the nth substance listed
Conditions: 100 kPa, Liquid; for mass density: Vibrating tube method; for viscosity: Falling or rolling sphere viscometry

CCCCCCCCCCCCCC[P+](CCCCCC)(CCCCCC)CCCCCC.[Cl-] [trihexyl(tetradecyl)phosphonium chloride] + CO
Conditions	mass density [kg/m3]	viscosity [mPa·s]
290.15 K, x1 = 0.0156	815.9	–
290.15 K, x1 = 0.0351	832.7	–
290.15 K, x1 = 0.056	845.2	–
290.15 K, x1 = 0.0811	856.7	–
290.15 K, x1 = 0.1271	869.2	–
290.15 K, x1 = 0.2092	880.2	–
290.15 K, x1 = 0.3681	889.1	–
290.15 K, x1 = 0.4851	891.6	–
290.15 K, x1 = 0.6453	894.2	–
290.15 K, x1 = 0.7844	895.8	–
290.15 K, x1 = 0.8997	896.8	–
290.15 K, x1 = 1	897.5	–
293.15 K, x1 = 0.0156	813.3	–
293.15 K, x1 = 0.0351	830.4	–
293.15 K, x1 = 0.056	842.9	–
293.15 K, x1 = 0.0811	854.5	–
293.15 K, x1 = 0.1271	867.2	–
293.15 K, x1 = 0.2092	878.2	–
293.15 K, x1 = 0.3681	887.2	–
293.15 K, x1 = 0.4851	889.9	–
293.15 K, x1 = 0.6453	892.5	–
293.15 K, x1 = 0.7844	894	–
293.15 K, x1 = 0.8997	895.1	–
293.15 K, x1 = 1	895.8	–
295.15 K, x1 = 0.0156	811.2	1.033
295.15 K, x1 = 0.0351	828.8	1.798
295.15 K, x1 = 0.056	841.4	3.34
295.15 K, x1 = 0.0811	853.1	6.279
295.15 K, x1 = 0.1271	865.8	15.65
295.15 K, x1 = 0.2092	876.9	45.36
295.15 K, x1 = 0.3681	885.9	173
295.15 K, x1 = 0.4851	888.9	401.5
295.15 K, x1 = 0.6453	891.4	820.4
295.15 K, x1 = 0.7844	892.9	1285
295.15 K, x1 = 0.8997	894	1687
295.15 K, x1 = 1	894.6	1996
298.15 K, x1 = 0.0156	809.1	0.988
298.15 K, x1 = 0.0351	826.4	1.695
298.15 K, x1 = 0.056	839.2	3.092
298.15 K, x1 = 0.0811	851	5.794
298.15 K, x1 = 0.1271	863.8	14.29
298.15 K, x1 = 0.2092	875	40.2
298.15 K, x1 = 0.3681	884	149.2
298.15 K, x1 = 0.4851	887.1	339.2
298.15 K, x1 = 0.6453	889.7	670
298.15 K, x1 = 0.7844	891.2	1046
298.15 K, x1 = 0.8997	892.1	1392
298.15 K, x1 = 1	892.8	1683
303.15 K, x1 = 0.0156	804.8	0.911
303.15 K, x1 = 0.0351	822.4	1.542
303.15 K, x1 = 0.056	835.4	2.704
303.15 K, x1 = 0.0811	847.4	5.089
303.15 K, x1 = 0.1271	860.4	12.28
303.15 K, x1 = 0.2092	871.8	33.24
303.15 K, x1 = 0.3681	880.9	116.2
303.15 K, x1 = 0.4851	884	255.5
303.15 K, x1 = 0.6453	886.7	486.4
303.15 K, x1 = 0.7844	888.2	744.5
303.15 K, x1 = 0.8997	889.1	978.6
303.15 K, x1 = 1	889.8	1174
308.15 K, x1 = 0.0156	800.5	0.842
308.15 K, x1 = 0.0351	818.5	1.407
308.15 K, x1 = 0.056	831.6	2.287
308.15 K, x1 = 0.0811	843.9	4.496
308.15 K, x1 = 0.1271	857.1	10.64
308.15 K, x1 = 0.2092	868.5	27.72
308.15 K, x1 = 0.3681	877.8	90.86
308.15 K, x1 = 0.4851	881	197.3
308.15 K, x1 = 0.6453	883.7	363.3
308.15 K, x1 = 0.7844	885.3	543.1
308.15 K, x1 = 0.8997	886.2	700
308.15 K, x1 = 1	886.9	824.1
313.15 K, x1 = 0.0156	796.3	0.79
313.15 K, x1 = 0.0351	814.5	1.289
313.15 K, x1 = 0.056	827.9	1.901
313.15 K, x1 = 0.0811	–	4.071
313.15 K, x1 = 0.1271	–	9.437
313.15 K, x1 = 0.2092	865.3	23.32
313.15 K, x1 = 0.3681	874.5	81.39
313.15 K, x1 = 0.4851	878.6	151.5
313.15 K, x1 = 0.6453	880.8	271.4
313.15 K, x1 = 0.7844	882.6	396.8
313.15 K, x1 = 0.8997	883.2	505.7
313.15 K, x1 = 1	883.9	593.7
